Data reported in US7912535B2, “Method and system for assessing repolarization abnormalities” (University of Rochester, priority 2006, dated 2011).
Marks after values point to notes of the source that are not given here.

Test system: IKr ion currents
Experiment: First validation: ECG repolarization changes (QTc, ERDc, LRDc) on sotalol versus baseline
Type: in vivo
Conditions: median (standard deviation); for ERDc 50%, Δ on drug - baseline / LRDc 50%, Δ on drug - baseline: individual correction formula
Excerpt: FIG. 2 illustrates one embodiment of a such a method for assessing repolarization abnormalities. At least two repolarization signals are identified 30 from a set of ECG signals. The ECG signals may be obtained from a variety of ECG capture devices as discussed above. The ECG signals may be obtained in “real-time” from a subject, or the ECG signals may be obtained from a database (which should be understood to include memory devices) storing previously obtained ECG signals.
Once the at least two repolarization signals are identified 30, principal component analysis 32 can be done on the repolarization signals to extract eigenvectors ev1 and ev2. Principal component analysis (PCA) is a way of identifying patterns in data, and is especially useful in dealing with multi-dimensional data, such as multiple repolarization signals from multiple ECG leads. PCA analysis is a mathematical technique which those skilled in the art will be familiar with, and results in a matrix of eigenvectors. As a summary of the PCA analysis, first, the mean is subtracted from each of the data dimensions. This produces a data set whose mean is zero. Next, a covariance matrix is calculated for the data. If the data has n-dimensions, then the covariance matrix will be a square n-by-n matrix. Mathematical constructs called eigenvectors and eigenvalues may be calculated for a square matrix, and so next, a set of eigenvectors and eigenvalues are calculated for the covariance matrix. For the n-by-n covariance matrix, there will be n eigenvectors. The eigenvectors are orthogonal to each other, and each has a corresponding eigenvalue. The eigenvectors can be thought of as a representation of the multi-dimension data. The eigenvector with the highest eigenvalue is the principal component of the data set. The eigenvectors may be sorted from highest to lowest, and the eigenvectors with the two highest eigenvalues may be referred to as ev1 and ev2 respectively.
Once the PCA analysis 32 has been completed, a maximum vector MV may be determined 34 based on a transformed ECG signal in a preferential plane defined by ev1 and ev2. Mathematically, MV is detected at time t=TMV, where equation 1 is fulfilled: MV=max ? {right arrow over (VECG)}(t)−{right arrow over (VECG)}(TQ) ? , Equation 1)
Referring again to FIG. 2, once the maximum vector MV has been determined, a repolarization duration which is based on the maximum vector MV is determined 36. The repolarization duration may be determined 36 by taking an arbitrary threshold percentage of the magnitude of MV and projecting the threshold magnitude relative to an endpoint of MV to determine a beginning point and an ending point on the transformed ECG signal in the plane defined by ev1 and ev2. An example of this process can be seen graphically in FIG. 3. In the example of FIG. 3, the arbitrary threshold percentage of the magnitude of MV is 30%. This threshold magnitude of 30% MV (or 30% Vmax) is projected in a circle or arc 38 around the endpoint of MV, which is labeled Vmax. Where the projected threshold 38 crosses 40 the transformed ECG signal 42 (or T-loop) on a first side of the endpoint of MV, we can define a beginning point. Since the data points are samples in time, the beginning point may be designated as the closest true data point 44 to the crossing point 40. Alternatively, the beginning point may be an interpolated data point based on the two closest data points 44 and 46. Where the projected threshold 38 crosses 48 the transformed ECG signal 42 (or T-loop) on a second side of the endpoint of MV, we can define an ending point. Since the data points are samples in time, the ending point may be designated as the closest true data point 50 to the crossing point 48. Alternatively, the ending point may be an interpolated data point based on the two closest data points 50 and 52. […]

## CC(C)NCC(O)c1ccc(NS(C)(=O)=O)cc1 (stereo not drawn) [sotalol]
42′-48′ after dosing
  QTc L II, Δ on drug - baseline: 4.0(16) ms
  ERDc 50%, Δ on drug - baseline: 5.1(14)* ms
  LRDc 50%, Δ on drug - baseline: 1.1(6.2)* ms
48′-54′ after dosing
  QTc L II, Δ on drug - baseline: 4.1(16) ms
  ERDc 50%, Δ on drug - baseline: 4.9(14)* ms
  LRDc 50%, Δ on drug - baseline: 0.6(5.2)* ms
54′-1 h after dosing
  QTc L II, Δ on drug - baseline: 4.3(16)* ms
  ERDc 50%, Δ on drug - baseline: 4.4(12) ms
  LRDc 50%, Δ on drug - baseline: 0.3(6.5) ms
1 h-1 h 6′ after dosing
  QTc L II, Δ on drug - baseline: 13(17)* ms
  ERDc 50%, Δ on drug - baseline: 9.5(16)** ms
  LRDc 50%, Δ on drug - baseline: 4.0(5.9)** ms
